Earlier results as cited in patent publication US20070098804A1, “Solid particulate tadalafil having a bimodal particle size distribution” (priority 2005, published 2007).

Conditions: crystalline solid, reported in the PDR

CN1CC(=O)N2[C@H](c3ccc4c(c3)OCO4)c3[nH]c4ccccc4c3C[C@@H]2C1=O [Tadalafil]
solubility in water: practically insoluble in water
